Experimental data as given in ChEMBL document CHEMBL5244243, “Novel strategies targeting bromodomain-containing protein 4 (BRD4) for cancer drug discovery” (Eur J Med Chem, 2020).
Each block holds one compound with its values, some of them ahead of it.

Tests used:
[1] = target: T1, Bromodomain-containing protein 4 (Homo sapiens, UniProt O60885); assay: Inhibition of human full length BRD4
[2] = target: T1, Bromodomain-containing protein 4; assay: Inhibition of BRD4 (unknown origin) BD1 domain
Histone deacetylase = assay: Inhibition of HDAC (unknown origin); type: protein assay, Homo sapiens
[3] = target: T1, Bromodomain-containing protein 4; assay: Induction of BRD4 (unknown origin) degradation at 100 nM relative to control
[4] = target: T1, Bromodomain-containing protein 4; assay: Induction of BRD4 degradation in human MV4-11 cells at 100 nM measured after 18 hrs relative to control; type: cell-based
[5] = target: T1, Bromodomain-containing protein 4; assay: Inhibition of BRD4 (unknown origin) BD1 domain incubated for 18 hrs
MV4-11 = assay: Antitumor activity against human MV4-11 cells xenografted in mouse assessed as TGI at 1 mg/kg, po measured after 7 days relative to control; type: functional; conditions: MV4-11, 168 h, time 7 day, read-out: TGI

SMILES: Cc1sc2c(c1C)C(c1ccc(Cl)cc1)=N[C@@H](CC(=O)Nc1ccc(C(=O)NO)cc1)c1nnc(C)n1-2
IC50 [2]: 11 nM
IC50 (Histone deacetylase): 21 nM

SMILES: COc1nnc2ccc(N3CCC(c4ccc(OCCN5CCN(C)C(=O)[C@H]5C)cc4)CC3)nn12 [AZD-5153]
IC50 [5]: 1.6 nM
inhibition in vivo at 1 mg/kg (MV4-11): 72%

More lines, now with the values ahead:

IC50 [1]: 5 nM
SMILES: Cc1noc(C)c1-c1ccc2c(c1)c(Cc1ccc(F)cc1)cn2CCCCCCC(=O)NO

Activity [3]: 90%
SMILES: Cc1ncsc1-c1ccc(CNC(=O)[C@@H]2C[C@@H](O)CN2C(=O)C(NC(=O)COCCOCCOCCNC(=O)C[C@@H]2N=C(c3ccc(Cl)cc3)c3c(sc(C)c3C)-n3c(C)nnc32)C(C)(C)C)cc1 (some centres not stated)

Activity [4]: 87%
SMILES: Cc1sc2c(c1C)C(c1ccc(Cl)cc1)=N[C@@H](CC(=O)NCCCCNC(=O)COc1cccc3c1C(=O)N(C1CCC(=O)NC1=O)C3=O)c1nnc(C)n1-2 (some centres not stated)
